US20050203191A1, “1-Aminocyclohexane derivatives for the treatment of agitation and other behavioral disorders, especially those associated with alzheimer's disease” (priority 2004, published 2005)

Test system: patients with mild to moderate dementia of the Alzheimer's type on stable chronic doses of a cholinesterase inhibitor
Assay: MD-12: randomized, double-blind, placebo-controlled evaluation of memantine added to stable cholinesterase inhibitor
Type: in vivo, human
Settings: MD-12, on cholinesterase inhibitor, week 24, ITT LOCF
Procedure: The primary endpoints for MD-12 were ADAS-cog and CIBIC-plus. Other endpoints for MD-12 included ADCS-ADL23, NPI, MMSE and RUD (Resource Utilization in Dementia).
The five memantine trials were evaluated using an analysis of patient for a population having an NPI agitation subscale score of >4 ([…]) and for a population having an NPI score of <4 ([…]). For each NPI population, changes in SIB, ADAS-cog and/or ADL were calculated using the least square (LS) mean difference for memantine and placebo-treated patients. Similarly, for each NPI population, the raw mean difference between memantine and placebo was calculated for the CIBIC-plus results.
For primary efficacy measurements the comparison between memantine and placebo was performed using two-way analysis of covariance (ANCOVA) with treatment group and center as the two factors, and the baseline scores as covariate. Both the LOCF imputation approach and the OC approach are performed at the end of the trials.
For secondary efficacy measurements, the comparison between memantine and placebo was performed using two-way analysis of covariance (ANCOVA) with treatment group and center as the two main effects, and the baseline scores as covariate. Descriptive statistics were calculated by Visit. Again, all analyses were performed using both the LOCF imputation approach and the OC approach.
Results of ANCOVA were summarized using least square (LS) means for each treatment group with corresponding standard error (SE), the between-treatment (2-24 week) difference in the least square means with corresponding 95% confidence interval, and the between-treatment p-value corresponds to the SAS Type III sum of squares.
In data Tables 5-19, the Overall Memantine versus Placebo columns of studies MD-01, MD-02, MD-10 and MD-12 used an ANCOVA model with baseline total score as covariate, treatment and study center as factors for SIB, ADL or ADAS-cog; CMH test controlling for study center for CIBIC-Plus. For MZ-9605, results are based on arithmetic means and the Wilcoxon-Mann-Whitney test. The Agitation score columns/NPI/antipsychotics columns, except CIBIS-Plus, calculated the p-values and LS mean differences within the subgroups from an ANCOVA model with baseline total score as covariate, subgroup (yes/no), treatment, and treatment by subgroup interactions as factors. For CIBIS-Plus, the p-values and raw mean differences within a subgroup were calculated using the CMH test controlling for study center.
Patients in the same five trials described above were stratified into two sub-groups in a second analysis, those with an NPI total score in the top quartile (≧75%), or those more severely impaired at baseline, and those with an NPI total score <75%, or less severe impairment at baseline. Similar to as in Example 1, results were evaluated using the change in SIB (cognitive endpoint), and change in ADCS-ADL (functional endpoint), using the LS mean. The change in the CIBIC-plus (global endpoint) was assessed using the raw mean.
A sub-population of patients from the five trials, MD-01, MD-02, MD-10, MD-12, and MZ-9605, were concurrently taking antipsychotics.

[1] = NPI total score ≧=75% (top quartile)
[2] = antipsychotics usage “YES” (N = n)
[3] = antipsychotics usage “YES” (N = y)
[4] = baseline NPI agitation score <4
[5] = baseline NPI agitation score ≧=4

## CC12CC3CC(C)(C1)CC(N)(C3)C2 [memantine, 1-amino-3,5-dimethyl adamantane]
  ADAS-COG (change) LS Mean Diff., MEM v. PLA (second parameter of Table 18): −0.24
NPI total score <75%
  ADAS-cog (change) LS Mean Diff., MEM v. PLA: −0.39
  ADAS-cog (change) mean: 0.53
  ADCS-ADL (change) LS Mean Diff., MEM v. PLA: −0.76
  ADCS-ADL (change) mean: −3.0
  CIBIC-PLUS Raw Mean Diff., MEM v. PLA: −0.041
  CIBIC-PLUS mean: 4.3
NPI total score <75%, listed as MEM
  CIBIC-PLUS Raw Mean Diff., MEM v. PLA: −0.1
[1]
  ADAS-cog (change) LS Mean Diff., MEM v. PLA: −1.53
  ADAS-cog (change) mean: 0.05
  ADCS-ADL (change) LS Mean Diff., MEM v. PLA: 2.0
  ADCS-ADL (change) mean: −2.8
  CIBIC-PLUS Raw Mean Diff., MEM v. PLA: 0.0
  CIBIC-PLUS mean: 4.6
NPI total score ≧=75% (top quartile), listed as MEM
  ADCS-ADL (change) LS Mean Diff., MEM v. PLA: 2.00
[2]
  ADAS-COG (change) mean (second parameter of Table 18): −2.5
  ADAS-cog (change) LS Mean Diff., MEM v. PLA: −0.74
  ADAS-cog (change) mean: 0.1
  CIBIC-PLUS Raw Mean Diff., MEM v. PLA: −0.06
  CIBIC-PLUS mean: 4.33
[3]
  ADAS-COG (change) LS Mean Diff., MEM v. PLA (second parameter of Table 18): .43
  ADAS-COG (change) mean (second parameter of Table 18): −6.0
  ADAS-cog (change) LS Mean Diff., MEM v. PLA: .4
  ADAS-cog (change) mean: 3.2
  CIBIC-PLUS Raw Mean Diff., MEM v. PLA: 0.1
  CIBIC-PLUS mean: 4.74
[4]
  ADAS-cog (change) LS Mean Diff., MEM v. PLA: −0.72
  ADAS-cog (change) mean: 0.35
  ADCS-ADL (change) LS Mean Diff., MEM v. PLA: −0.56
  ADCS-ADL (change) mean: −2.8
  CIBIC-PLUS Raw Mean Diff., MEM v. PLA: −0.1
  CIBIC-PLUS mean: 4.3
[5]
  ADAS-cog (change) LS Mean Diff., MEM v. PLA: −0.27
  ADAS-cog (change) mean: 0.98
  ADCS-ADL (change) LS Mean Diff., MEM v. PLA: 3.54
  ADCS-ADL (change) mean: −3.7
  CIBIC-PLUS Raw Mean Diff., MEM v. PLA: no difference
  CIBIC-PLUS mean: 4.7
Baseline NPI agitation score ≧=4, listed as MEM
  CIBIC-PLUS Raw Mean Diff., MEM v. PLA: 0.0
overall
  ADAS-cog (change) LS Mean Diff., MEM v. PLA: −0.70
  ADAS-cog (change) LS mean: 0.10
  ADCS-ADL (change) LS Mean Diff., MEM v. PLA: −0.20
  ADCS-ADL (change) LS mean: −3.00
  CIBIC-PLUS LS mean: 4.38
  CIBIC-PLUS Raw Mean Diff., MEM v. PLA: −0.04
